Assays:
Type in all cases: in vivo, Helianthus annuus
[1] = system: sunflower restorer line TH10 (A205V); assay: Greenhouse imazapir dose response, TH10; settings: 14 DAT
Protocol: (§1) A greenhouse study was conducted to quantify and contrast the imazapir sensivity of the mutants A122T and A205V in different genetic backgrounds at the whole plant level in sunflower. Seeds of the different sunflower lines that were used in this study were obtained under field conditions.
(§2) Seeds were sown in Petri dishes and, after germination, plantlets were transplanted to pots of 10 cm of diameter in a potting media consisting of equal parts of vermiculite, soil and sand. Plants were grown in a greenhouse under natural light conditions supplemented with 400 W sodium halide lamps to provide a 16 hrs daylength. Day/night temperatures were 25 and 20° C., respectively. At the V2 stage 10 plants of each genotype were randomly assigned to each treatment consisting of […] imazapir doses (0, 40, 80, 160, 240, 320, 400 and 480 g ai/ha), and a zero-time biomass determination. Experiment was arranged as a randomized block design with a full factorial (sunflower line×treatment) arrangement of treatments and 10 replications.
(§3) On the day of herbicide application ten plants of each genotype were cut at the cotyledonal node and dried at 60° C. for 48 hrs zero-time for dried weight determination. […] Height was determined as the distance between the cotyledonal node and the apex of each plant. For root biomass determination, each plant was taken from the pot and the potting media was washed out from the roots. Above ground biomass data from each line were converted to biomass accumulation after application by subtracting the appropriate average zero-time biomass from each sample. Dry biomass data were converted to percentages of the untreated control plants within each line to allow direct comparisons between groups.

[2] = system: Clearfield sunflower variety A; assay: Greenhouse spray injury rating, Clearfield variety A; settings: imazapyr 240 gm ai/ha, scale 0-9
Source text: (§4) Sunflower lines S4897, Clearfield® sunflower varieties A, B, C and a conventional non-Clearfield variety were sprayed with three rates of imazamox (Raptor™), 100, 200 and 300 gm ai/ha plus 0.5% Sun It II and two rates of imazapyr (Arsenal™) 160 and 360 gm ai/ha plus 0.5% Sun It II when the plants were at the two to three leaf stage. Ratings were taken at 14 days after application (DAT) for injury. Injury was rated on a scale from 0 to 9 where 0=no injury to 9=dead plant. Twelve plants were sprayed per herbicide/rate treatment. Statistical analysis was conducted with STATGRAPHICS Plus 5.0 by using ANOVA and LSD procedures.
(§5) After plants were sprayed, it was realized that a height difference between S4897 and other sunflower varieties would have impacted the actual herbicide dose that was delivered. The spray boom height had been calibrated against S4897 and since the other varieties were taller and closer to the boom they would have received a greater dose of herbicide. Rates were recalibrated for the other varieties to determine the approximate dose they would have received. Assessments were made as presented in Table 2 since it was not possible to make a direct rate comparison due to the effect of the height. For example injury scores were compare for S4897 treated imazamox rate 100 gm ai/ha to the other varieties treated at 75 gm ai/ha. The treatment dose of 300 gm ai/ha for line S4897 was equivalent to the treatment of 200 gm ai/ha for the other varieties, which […].

[3] = system: Clearfield sunflower variety C; assay: Greenhouse spray injury rating, Clearfield variety C; settings: imazapyr 240 gm ai/ha, scale 0-9
Source text: as §4, §5

[4] = system: sunflower hybrid TH6 (A122T); assay: Greenhouse imazapir dose response, TH6; settings: 14 DAT
Protocol: as §1, §2, §3

[5] = system: sunflower restorer line IR79 (A205V); assay: Greenhouse imazapir dose response, IR79; settings: 14 DAT
Protocol: as §1, §2, §3

With CC(C)C1(C)N=C(c2ncccc2C(=O)O)NC1=O (stereo not shown) [Imazapyr, imazapyr] the “Phytotoxicity Index” value ([1]; 0.5x (40 g ai/ha)) was 0, the “biomass accumulation, % of untreated” value ([1]; 0.5x (40 g ai/ha)) was 99.2% and the “plant height, % of untreated” value ([1]; 0.5x (40 g ai/ha)) was 99.2%. For the same compound, the “root dry weight, % of untreated” value ([1]; 0.5x (40 g ai/ha)) was 90.3%, the “Phytotoxicity Index” value ([1]; 1x (80 g ai/ha)) was 0 and the “biomass accumulation, % of untreated” value ([1]; 1x (80 g ai/ha)) was 85.0%. The “plant height, % of untreated” value ([1]; 1x (80 g ai/ha)) was 98.1%, the “root dry weight, % of untreated” value ([1]; 1x (80 g ai/ha)) was 69.9% and the “Phytotoxicity Index” value ([1]; 2x (160 g ai/ha)) was 3.1. For the same compound, the “biomass accumulation, % of untreated” value ([1]; 2x (160 g ai/ha)) was 58.1%, the “plant height, % of untreated” value ([1]; 2x (160 g ai/ha)) was 63.6% and the “root dry weight, % of untreated” value ([1]; 2x (160 g ai/ha)) was 41.3%. For the same compound, the “Phytotoxicity Index” value ([1]; 3x (240 g ai/ha)) was 3.9, the “biomass accumulation, % of untreated” value ([1]; 3x (240 g ai/ha)) was 48.1% and the “plant height, % of untreated” value ([1]; 3x (240 g ai/ha)) was 51.9%. The “root dry weight, % of untreated” value ([1]; 3x (240 g ai/ha)) was 42.8%, the “Phytotoxicity Index” value ([1]; 4x (320 g ai/ha)) was 5.9 and the “biomass accumulation, % of untreated” value ([1]; 4x (320 g ai/ha)) was 28.8%. The “plant height, % of untreated” value ([1]; 4x (320 g ai/ha)) was 27.5%, the “root dry weight, % of untreated” value ([1]; 4x (320 g ai/ha)) was 22.3% and the “Phytotoxicity Index” value ([1]; 5x (400 g ai/ha)) was 6.9. For the same compound, the “biomass accumulation, % of untreated” value ([1]; 5x (400 g ai/ha)) was 27.4%, the “plant height, % of untreated” value ([1]; 5x (400 g ai/ha)) was 26.0% and the “root dry weight, % of untreated” value ([1]; 5x (400 g ai/ha)) was 22.7%. For the same compound, the “Phytotoxicity Index” value ([1]; 6x (480 g ai/ha)) was 6.7, the “biomass accumulation, % of untreated” value ([1]; 6x (480 g ai/ha)) was 24.9% and the “plant height, % of untreated” value ([1]; 6x (480 g ai/ha)) was 29.3%. The “root dry weight, % of untreated” value ([1]; 6x (480 g ai/ha)) was 16.4%, the “Injury at 14 DAT” value [2] was 5.0 c and the “Injury at 14 DAT” value [3] was 4.9 c. For the same compound, the “Phytotoxicity Index” value ([4]; 0.5x (40 g ai/ha)) was 0.5, the “biomass accumulation, % of untreated” value ([4]; 0.5x (40 g ai/ha)) was 100% and the “plant height, % of untreated” value ([4]; 0.5x (40 g ai/ha)) was 99.2%. For the same compound, the “root dry weight, % of untreated” value ([4]; 0.5x (40 g ai/ha)) was 100%, the “Phytotoxicity Index” value ([4]; 1x (80 g ai/ha)) was 0.5 and the “biomass accumulation, % of untreated” value ([4]; 1x (80 g ai/ha)) was 97.2%. For the same compound, the “plant height, % of untreated” value ([4]; 1x (80 g ai/ha)) was 98.6%, the “root dry weight, % of untreated” value ([4]; 1x (80 g ai/ha)) was 98.1% and the “Phytotoxicity Index” value ([4]; 2x (160 g ai/ha)) was 0.5. The “biomass accumulation, % of untreated” value ([4]; 2x (160 g ai/ha)) was 97.9%, the “plant height, % of untreated” value ([4]; 2x (160 g ai/ha)) was 100.3% and the “root dry weight, % of untreated” value ([4]; 2x (160 g ai/ha)) was 96.2%. For the same compound, the “Phytotoxicity Index” value ([4]; 3x (240 g ai/ha)) was 0.5, the “biomass accumulation, % of untreated” value ([4]; 3x (240 g ai/ha)) was 98.2% and the “plant height, % of untreated” value ([4]; 3x (240 g ai/ha)) was 99.6%. The “root dry weight, % of untreated” value ([4]; 3x (240 g ai/ha)) was 79.3%, the “Phytotoxicity Index” value ([4]; 4x (320 g ai/ha)) was 0.5 and the “biomass accumulation, % of untreated” value ([4]; 4x (320 g ai/ha)) was 97.8%. For the same compound, the “plant height, % of untreated” value ([4]; 4x (320 g ai/ha)) was 101.0%, the “root dry weight, % of untreated” value ([4]; 4x (320 g ai/ha)) was 78.4% and the “Phytotoxicity Index” value ([4]; 5x (400 g ai/ha)) was 0.5. For the same compound, the “biomass accumulation, % of untreated” value ([4]; 5x (400 g ai/ha)) was 85.1%, the “plant height, % of untreated” value ([4]; 5x (400 g ai/ha)) was 87.0% and the “root dry weight, % of untreated” value ([4]; 5x (400 g ai/ha)) was 85.8%. For the same compound, the “Phytotoxicity Index” value ([4]; 6x (480 g ai/ha)) was 0.5, the “biomass accumulation, % of untreated” value ([4]; 6x (480 g ai/ha)) was 79.5% and the “plant height, % of untreated” value ([4]; 6x (480 g ai/ha)) was 79.6%. For the same compound, the “root dry weight, % of untreated” value ([4]; 6x (480 g ai/ha)) was 57.3%, the “biomass accumulation, % of untreated” value ([5]; 0.5x (40 g ai/ha)) was 94.4% and the “plant height, % of untreated” value ([5]; 0.5x (40 g ai/ha)) was 92.8%. The “root dry weight, % of untreated” value ([5]; 0.5x (40 g ai/ha)) was 98.6%, the “biomass accumulation, % of untreated” value ([5]; 1x (80 g ai/ha)) was 74.0% and the “plant height, % of untreated” value ([5]; 1x (80 g ai/ha)) was 80.9%. For the same compound, the “root dry weight, % of untreated” value ([5]; 1x (80 g ai/ha)) was 53.4%, the “biomass accumulation, % of untreated” value ([5]; 2x (160 g ai/ha)) was 67.7% and the “plant height, % of untreated” value ([5]; 2x (160 g ai/ha)) was 74.9%. The “root dry weight, % of untreated” value ([5]; 2x (160 g ai/ha)) was 42.5%, the “biomass accumulation, % of untreated” value ([5]; 3x (240 g ai/ha)) was 49.1% and the “plant height, % of untreated” value ([5]; 3x (240 g ai/ha)) was 55.7%. The “root dry weight, % of untreated” value ([5]; 3x (240 g ai/ha)) was 38.4%, the “biomass accumulation, % of untreated” value ([5]; 4x (320 g ai/ha)) was 44.5% and the “plant height, % of untreated” value ([5]; 4x (320 g ai/ha)) was 52.8%. The “root dry weight, % of untreated” value ([5]; 4x (320 g ai/ha)) was 31.5%, the “biomass accumulation, % of untreated” value ([5]; 5x (400 g ai/ha)) was 40.1% and the “plant height, % of untreated” value ([5]; 5x (400 g ai/ha)) was 41.7%. For the same compound, the “root dry weight, % of untreated” value ([5]; 5x (400 g ai/ha)) was 23.3%, the “biomass accumulation, % of untreated” value ([5]; 6x (480 g ai/ha)) was 35.3% and the “plant height, % of untreated” value ([5]; 6x (480 g ai/ha)) was 33.2%. For the same compound, the “root dry weight, % of untreated” value ([5]; 6x (480 g ai/ha)) was 21.9%.
